Converted amounts (≈) assume the structure as drawn.
Legend:
Format in all cases: physicochemical
[1] = Solubility screen of Compound 1 in lipids; conditions: oil or lipid
[2] = Effect of stabilizers on stability of Compound 1 capsule matrix (A1 formation)
Experimental: Two antioxidants, α-tocopherol and ascorbyl palmitate, were evaluated to minimize the oxidation. Use of α-tocopherol alone improved Compound 1 stability as measured by the formation of A1 (see Table 1). When ascorbyl palmitate was combined with α-tocopherol, further stability improvement was observed. Table 14 summarizes the compositions of the Compound 1 capsule matrix evaluated and Table 15 summarizes the effect of α-tocopherol and ascorbyl palmitate as stabilizers on the stability of Compound 1.

[3] = Solubility of Compound 1 (freebase form) in dosing vehicles, HPLC; conditions: shaken five days, 25° C. (40° C. semi-solid, 50° C. solid vehicles)
Experimental: This study was carried out to evaluate the solubility of Compound 1 (freebase form) in a variety of dosing vehicles to identify excipient classes that maximize drug solubility. A total of 20 vehicles which were selected and agreed with the customer were used in this study. Compound 1 was added to approximately 1 gram of the excipients. After the initial addition of Compound 1, the mixtures were shaken in a temperature-controlled vortex mixer at 25° C. (40° C. for vehicles that were semi-solid at room temperature and 50° C. for solid vehicles) then examined for solid residues. If dissolution was observed during the mixing time, additional Compound 1 was added until no further dissolution was observed. After shaking for a total of five days, the suspensions were filtered using a centrifuge tube with 0.45 PVDF membrane filter (Millipore Durapore®). The filtrate was weighed in to a 25-mL volumetric flask and diluted to volume with the diluent solution (90:10% v/v IPA/Acetonitrile) for a determination of Compound 1 concentration via High Performance Liquid Chromatography (HPLC). Residual solids were inspected by PXRD to determine the solid form. Quantitative determination of the amount of API dissolved was performed using reverse-phase HPLC analyses on an Agilent 1290 Infinity II UHPLC system equipped with a Diode Array Detector (DAD). Agilent 1290 Infinity II UHPLC system equipped with a Diode Array Detector (DAD) Mobile Phase A: 0.05% Formic acid in water Mobile Phase B: 0.05% Formic acid in acetonitrile

Question: What does the source list for CC(C)N(C)c1ccc([C@H]2C[C@@]3(C)[C@@H](CC[C@@]3(O)C#CC(C)(C)C)[C@@H]3CCC4=CC(=O)CC[C@@H]4[C@H]32)cc1 [Compound 1, (8R,9S,10R,11S,13S,14S,17S)-17-(3,3-dimethylbut-1-yn-1-yl)-17-hydroxy-11-(4-(isopropyl(methyl)amino)phenyl)-13-methyl-1,2,6,7,8,9,10,11,12,13,14,15,16,17-tetradecahydro-3H-cyclopenta[a]phenanthren-3-one]?
Answer: Solubility ([1]; in Capmul MCM (Glyceryl monocaprylcaprate, Type I, NF)): < 40 mg/mL; Solubility ([1]; in Capryol 90 (Propylene glycol monocaprylate, Type II, NF)): 40 mg/mL (≈ 79.7 mM); Solubility ([1]; in Capryol 90 + 5% Poloxamer P188 USP, particulate seen after 24 hours): 50 mg/mL; Solubility ([1]; in Kolliphor EL (PEG-35 Castor Oil USP)): < 40 mg/mL; Solubility ([1]; in Labrasol ALF (Caprylocaproyl Polyoyl-8 glycerides, NF)): 40 mg/mL (≈ 79.7 mM); Solubility ([1]; in Maisine CC (Caprylic/capric triglyceride NF)): < 40 mg/mL; Solubility ([1]; in Tween 20 (Polysorbate 20 NF)): < 40 mg/mL; Solubility ([1]; in Tween 80 (polysorbate 80 NF)): < 40 mg/mL; Formation of A1 ([2]; combination of α-tocopherol and ascorbyl palmitate as stabilizers): substantially suppresses; Formation of primary oxidative N-demethylation product (A1) ([2]; in caprylic acid, extended stability, after about 4-6m): greater than 4%; Compound 1 stability as measured by the formation of A1 ([2]; use of α-tocopherol alone): improved; Solubility ([3]; in Caprylocaproyl polyoxyl-8 glycerides): 42.4 mg/g; Solubility ([3]; in Decanoic acid (Capric acid)): 201.0 mg/g; Solubility ([3]; in Diethyl glycol monoethyl ether): 130.3 mg/g; Solubility ([3]; in Glycerin): 0.1 mg/g; Solubility ([3]; in Glyceryl caprylate/caprate): 79.0 mg/g; Solubility ([3]; in Glyceryl monolinoleate): 41.2 mg/g; Solubility ([3]; in Lauroyl polyoxyl-6 glycerides): 40.8 mg/g; Solubility ([3]; in Lauroyl polyoxyl-32 glycerides): 39.2 mg/g; Solubility ([3]; in Medium chain triglycerides): 26.1 mg/g; Solubility ([3]; in Octanoic acid (Caprylic acid)): 199.2 mg/g; Solubility ([3]; in PEG 400): 14.5 mg/g; Solubility ([3]; in Polyethylene glycol monostearate): 34.2 mg/g; Solubility ([3]; in Polyethylene glycol sorbitan monolaurate): 26.1 mg/g; Solubility ([3]; in Propylene Glycol): 12.1 mg/g; Solubility ([3]; in Propylene glycol monocaprylate): 139.6 mg/g; Solubility ([3]; in Propylene glycol monolaurate): 68.4 mg/g; Solubility ([3]; in Sorbitan Monolaurate): 34.1 mg/g; Solubility ([3]; in Sorbitan monooleate): 19.5 mg/g; Solubility ([3]; in Triacetin): 21.9 mg/g; Solubility ([3]; in Vitamin E TPGS): 8.3 mg/g
